One may read the inhibition as the relative decrease from the control value, in per cent. By EC50 is commonly meant the concentration at which the effect is half-maximal.

Structures are written as SMILES.

CYP2C9, sequence (P11712 whole entry, canonical isoform): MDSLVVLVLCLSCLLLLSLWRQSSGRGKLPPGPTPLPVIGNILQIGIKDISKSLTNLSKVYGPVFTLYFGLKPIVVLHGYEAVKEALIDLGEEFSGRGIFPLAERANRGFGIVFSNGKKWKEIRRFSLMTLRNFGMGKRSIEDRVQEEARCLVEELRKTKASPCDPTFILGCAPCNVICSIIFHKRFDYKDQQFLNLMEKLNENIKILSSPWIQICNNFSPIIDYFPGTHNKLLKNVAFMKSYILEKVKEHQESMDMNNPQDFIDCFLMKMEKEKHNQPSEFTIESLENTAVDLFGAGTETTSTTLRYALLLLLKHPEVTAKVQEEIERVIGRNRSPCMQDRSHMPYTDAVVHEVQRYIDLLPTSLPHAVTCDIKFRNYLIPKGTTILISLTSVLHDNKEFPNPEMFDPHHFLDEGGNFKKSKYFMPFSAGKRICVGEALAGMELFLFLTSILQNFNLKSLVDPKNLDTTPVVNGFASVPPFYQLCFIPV
CYP3A4, sequence (P08684 whole entry, canonical isoform): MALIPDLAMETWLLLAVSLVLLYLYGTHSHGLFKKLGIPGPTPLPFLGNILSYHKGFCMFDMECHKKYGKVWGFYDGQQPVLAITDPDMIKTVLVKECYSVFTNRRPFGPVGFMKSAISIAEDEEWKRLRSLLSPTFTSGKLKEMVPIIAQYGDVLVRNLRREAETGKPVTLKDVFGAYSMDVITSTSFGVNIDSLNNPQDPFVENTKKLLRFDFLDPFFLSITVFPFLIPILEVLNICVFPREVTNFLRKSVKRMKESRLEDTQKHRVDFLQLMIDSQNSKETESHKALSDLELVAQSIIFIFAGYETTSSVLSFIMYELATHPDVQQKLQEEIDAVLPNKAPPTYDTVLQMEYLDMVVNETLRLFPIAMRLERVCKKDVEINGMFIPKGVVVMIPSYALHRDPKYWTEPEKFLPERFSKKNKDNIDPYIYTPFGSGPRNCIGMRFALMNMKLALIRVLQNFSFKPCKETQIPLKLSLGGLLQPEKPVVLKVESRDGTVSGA

One data set concerns the target T1, CYP1A2 (Homo sapiens, UniProt P05177).
T1 sequence (P05177 1-516): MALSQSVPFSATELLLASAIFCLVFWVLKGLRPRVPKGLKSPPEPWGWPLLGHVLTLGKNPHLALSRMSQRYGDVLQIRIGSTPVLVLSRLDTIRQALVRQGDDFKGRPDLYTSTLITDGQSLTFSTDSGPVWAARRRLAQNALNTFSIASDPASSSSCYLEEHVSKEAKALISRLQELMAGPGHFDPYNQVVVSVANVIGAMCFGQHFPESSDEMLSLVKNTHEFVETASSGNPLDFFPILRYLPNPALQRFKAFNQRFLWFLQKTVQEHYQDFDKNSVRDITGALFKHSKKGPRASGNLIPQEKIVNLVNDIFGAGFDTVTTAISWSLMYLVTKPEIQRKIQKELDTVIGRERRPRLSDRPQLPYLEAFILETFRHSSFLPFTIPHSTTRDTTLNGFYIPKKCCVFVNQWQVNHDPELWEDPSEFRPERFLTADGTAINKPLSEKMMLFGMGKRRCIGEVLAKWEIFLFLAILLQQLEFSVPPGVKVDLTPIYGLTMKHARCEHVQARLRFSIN
The data set can be described thus: in vitro. Also noted: cytochrome P450 isoform inhibition liability assay.
Settings: not given
Consider `Nc1nnc(-c2cccc(Br)c2)s1` [1i], for which the inhibition at 10 µM was 47 ± 2%.

In the case of `Nc1nnc(-c2ccc(-c3nnc(N)s3)c(N)c2)s1` [1o], the inhibition at 10 µM stood at 9.5 ± 4.2%.

For the compound `Nc1nnc(-c2ccc(Cl)c(Cl)c2)s1` [1l], the inhibition at 10 µM was 80.6 ± 1.6%.

Take `COc1cccc(OC)c1-c1nnc(N)s1` [1g]: the inhibition at 10 µM worked out at 8.9 ± 0.3%.

With `Nc1nnc(-c2ccc(O)c(O)c2)s1` [1d, 3′,4′-dihydroxy-phenyl-1,3,4-thiadiazole], the inhibition at 10 µM was -16.8 ± 6.9%.

Another data set concerns the target CYP2C9 (Homo sapiens, UniProt P11712). Briefly: in vitro. Further details: cytochrome P450 isoform inhibition liability assay.
Settings: not given
Consider `Nc1nnc(-c2cccc(Br)c2)s1` [1i], for which the inhibition at 10 µM was -47.7 ± 2%.

In the case of `Nc1nnc(-c2ccc(-c3nnc(N)s3)c(N)c2)s1` [1o], the inhibition at 10 µM is -4.2 ± 4.2%.

Regarding `Nc1nnc(-c2ccc(Cl)c(Cl)c2)s1` [1l], the inhibition at 10 µM is 46.7 ± 1.5%.

In the case of `COc1cccc(OC)c1-c1nnc(N)s1` [1g], the inhibition at 10 µM was -5.6 ± 1.3%.

In the case of `Nc1nnc(-c2ccc(O)c(O)c2)s1` [1d, 3′,4′-dihydroxy-phenyl-1,3,4-thiadiazole], the inhibition at 10 µM is -19.5 ± 5.6%.

In another data set the target is CYP2C19 (Homo sapiens, UniProt P33261). Briefly: in vitro. Further details: cytochrome P450 isoform inhibition liability assay.
CYP2C19, sequence (P33261 whole entry, canonical isoform): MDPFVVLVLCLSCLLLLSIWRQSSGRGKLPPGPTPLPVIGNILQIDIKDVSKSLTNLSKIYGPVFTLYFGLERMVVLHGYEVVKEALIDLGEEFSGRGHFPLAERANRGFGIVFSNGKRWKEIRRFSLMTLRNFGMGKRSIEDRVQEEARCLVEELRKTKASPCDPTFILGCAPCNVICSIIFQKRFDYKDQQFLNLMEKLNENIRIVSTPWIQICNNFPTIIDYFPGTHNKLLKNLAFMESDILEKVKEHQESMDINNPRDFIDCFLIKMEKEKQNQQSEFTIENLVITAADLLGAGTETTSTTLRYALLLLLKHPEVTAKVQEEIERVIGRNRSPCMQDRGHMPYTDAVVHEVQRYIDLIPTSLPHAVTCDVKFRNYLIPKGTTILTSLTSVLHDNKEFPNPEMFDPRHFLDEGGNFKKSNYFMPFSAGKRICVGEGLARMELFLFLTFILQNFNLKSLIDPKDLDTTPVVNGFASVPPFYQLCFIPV
Settings: not given
`Nc1nnc(-c2cccc(Br)c2)s1` [1i]: the inhibition at 10 µM is -30.9 ± 4.3%.

As to `Nc1nnc(-c2ccc(-c3nnc(N)s3)c(N)c2)s1` [1o], the inhibition at 10 µM was -28.3 ± 16%.

As for `Nc1nnc(-c2ccc(Cl)c(Cl)c2)s1` [1l], the inhibition at 10 µM came to 64.9 ± 1.7%.

Turning to `COc1cccc(OC)c1-c1nnc(N)s1` [1g], the inhibition at 10 µM is -30.6 ± 12.9%.

`Nc1nnc(-c2ccc(O)c(O)c2)s1` [1d, 3′,4′-dihydroxy-phenyl-1,3,4-thiadiazole]: the inhibition at 10 µM was -32.3 ± 7.8%.

In the next data set the target is CYP2D6 (Homo sapiens, UniProt P10635). The data set can be described thus: in vitro. Also noted: cytochrome P450 isoform inhibition liability assay.
CYP2D6, sequence (P10635 whole entry, canonical isoform): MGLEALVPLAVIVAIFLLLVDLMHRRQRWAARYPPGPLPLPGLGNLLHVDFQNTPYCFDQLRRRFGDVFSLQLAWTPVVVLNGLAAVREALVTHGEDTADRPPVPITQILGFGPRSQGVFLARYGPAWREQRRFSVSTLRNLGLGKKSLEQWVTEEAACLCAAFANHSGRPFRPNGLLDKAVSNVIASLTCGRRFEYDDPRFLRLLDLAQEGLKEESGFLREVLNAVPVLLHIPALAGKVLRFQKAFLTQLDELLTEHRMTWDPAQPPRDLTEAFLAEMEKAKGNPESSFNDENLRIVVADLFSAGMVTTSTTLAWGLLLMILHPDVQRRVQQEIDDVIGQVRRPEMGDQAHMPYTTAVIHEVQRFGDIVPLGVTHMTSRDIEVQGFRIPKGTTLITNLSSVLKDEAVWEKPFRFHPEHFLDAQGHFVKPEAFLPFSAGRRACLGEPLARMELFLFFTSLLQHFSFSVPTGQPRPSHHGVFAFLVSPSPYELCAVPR
Settings: not given
As for `Nc1nnc(-c2cccc(Br)c2)s1` [1i], the inhibition at 10 µM was -45.1 ± 6.2%.

As to `Nc1nnc(-c2ccc(-c3nnc(N)s3)c(N)c2)s1` [1o], the inhibition at 10 µM was -38 ± 5.7%.

For `Nc1nnc(-c2ccc(Cl)c(Cl)c2)s1` [1l], the inhibition at 10 µM was 52.7 ± 2.1%.

As to `COc1cccc(OC)c1-c1nnc(N)s1` [1g], the inhibition at 10 µM was -30.5 ± 5.6%.

Take `Nc1nnc(-c2ccc(O)c(O)c2)s1` [1d, 3′,4′-dihydroxy-phenyl-1,3,4-thiadiazole]: the inhibition at 10 µM was -28.4 ± 10.1%.

A further data set concerns the target CYP3A4 (Homo sapiens, UniProt P08684). Briefly: in vitro. Also noted: cytochrome P450 isoform inhibition liability assay.
Settings: not given
In the case of `Nc1nnc(-c2cccc(Br)c2)s1` [1i], the inhibition at 10 µM was -14.1 ± 6%.

For the compound `Nc1nnc(-c2ccc(-c3nnc(N)s3)c(N)c2)s1` [1o], the inhibition at 10 µM was -0.7 ± 4.4%.

Take `Nc1nnc(-c2ccc(Cl)c(Cl)c2)s1` [1l]: the inhibition at 10 µM worked out at 35.7 ± 7.9%.

`COc1cccc(OC)c1-c1nnc(N)s1` [1g]: the inhibition at 10 µM was 13 ± 6.4%.

Take `Nc1nnc(-c2ccc(O)c(O)c2)s1` [1d, 3′,4′-dihydroxy-phenyl-1,3,4-thiadiazole]: the inhibition at 10 µM was -8.1 ± 3.2%.

For the next data set, the system named is T. b. brucei Lister 427 bloodstream forms. Briefly: In vitro activity against T. brucei (HTS SYBR Green I growth inhibition assay). It is filed as cell-based, Trypanosoma brucei brucei. The conditions noted are these: Trypanosoma brucei, 50 μM; standard deviation within ±10% of the value; read-out: % Inhibition T. brucei at 50 μM.
On to `Nc1nnc(-c2cccc(Br)c2)s1` [1i], for which the inhibition at 50 µM amounted to 1.8%.

For `Nc1nnc(-c2ccc(-c3nnc(N)s3)c(N)c2)s1` [1o], the inhibition at 50 µM was 1.6%.

As to `Nc1nnc(-c2ccc(Cl)c(Cl)c2)s1` [1l], the inhibition at 50 µM is 30%.

As for `COc1cccc(OC)c1-c1nnc(N)s1` [1g], the inhibition at 50 µM came out at 4.2%.

Consider `Nc1nnc(-c2ccc(O)c(O)c2)s1` [1d, 3′,4′-dihydroxy-phenyl-1,3,4-thiadiazole], for which the inhibition at 50 µM is 78.6%.

Still in this data set, the particulars now being: Trypanosoma brucei, standard deviation within ±10% of the value; read-out: EC50 T. brucei.
Consider `Nc1nnc(-c2ccc(O)c(O)c2)s1` [1d, 3′,4′-dihydroxy-phenyl-1,3,4-thiadiazole], for which the half-maximal effective concentration (EC50) is 18.3 µM.

System in the next data set: not listed separately
Briefly: in vitro. Also noted: cytotoxicity, per cent cell growth of WI-38 fibroblasts. The conditions noted are these: human, wi-38 cells; read-out: % cell growth W1-38 at 10uM.
As for `Nc1nnc(-c2cccc(Br)c2)s1` [1i], the viability at 10 µM came to 111 ± 12.3%.

Consider `Nc1nnc(-c2ccc(-c3nnc(N)s3)c(N)c2)s1` [1o], for which the viability at 10 µM worked out at 103 ± 1.8%.

Turning to `Nc1nnc(-c2ccc(Cl)c(Cl)c2)s1` [1l], the viability at 10 µM came to 77.8 ± 22.1%.

`COc1cccc(OC)c1-c1nnc(N)s1` [1g]: the viability at 10 µM was found to be 80.3 ± 6.8%.

Take `Nc1nnc(-c2ccc(O)c(O)c2)s1` [1d, 3′,4′-dihydroxy-phenyl-1,3,4-thiadiazole]: the viability at 10 µM was determined as 99.9 ± 17.5%.

A further data set has as its target T2, TbPTR1 (Trypanosoma brucei brucei, UniProt O76290).
T2 construct: made in house
T2 sequence (O76290 1-268): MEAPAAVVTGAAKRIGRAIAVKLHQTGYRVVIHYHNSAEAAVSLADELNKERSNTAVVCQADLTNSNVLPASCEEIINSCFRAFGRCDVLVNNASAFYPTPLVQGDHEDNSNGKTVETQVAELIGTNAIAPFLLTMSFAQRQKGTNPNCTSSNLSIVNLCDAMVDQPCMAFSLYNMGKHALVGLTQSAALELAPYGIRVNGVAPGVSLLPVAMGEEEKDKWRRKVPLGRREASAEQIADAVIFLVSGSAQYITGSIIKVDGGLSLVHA
Briefly: biochemical. The settings on record: 50 μM compound; read-out: % Inhibition TbPTR1 at 50 μM.
As for `Nc1nnc(-c2cccc(Br)c2)s1` [1i], the inhibition at 50 µM turned out to be 34.2 ± 1.5%.

In the case of `Nc1nnc(-c2ccc(-c3nnc(N)s3)c(N)c2)s1` [1o], the inhibition at 50 µM stood at 23.4 ± 0.1%.

Consider `Nc1nnc(-c2ccc(Cl)c(Cl)c2)s1` [1l], for which the inhibition at 50 µM came out at 15.6 ± 0.7%.

On to `COc1cccc(OC)c1-c1nnc(N)s1` [1g], for which the inhibition at 50 µM turned out to be 14.1 ± 1.2%.

For the compound `Nc1nnc(-c2ccc(O)c(O)c2)s1` [1d, 3′,4′-dihydroxy-phenyl-1,3,4-thiadiazole], the inhibition at 50 µM was found to be 16.7 ± 1%.

Another data set concerns 786-O. Briefly: cells. Further details: mitochondrial toxicity in 786-O renal carcinoma cells. The settings on record: Homo sapiens, 786-0; mitochondrial toxicity.
With `Nc1nnc(-c2cccc(Br)c2)s1` [1i], the inhibition at 10 µM was -3.6 ± 9.1%.

Turning to `Nc1nnc(-c2ccc(-c3nnc(N)s3)c(N)c2)s1` [1o], the inhibition at 10 µM was -6.1 ± 4.3%.

As to `Nc1nnc(-c2ccc(Cl)c(Cl)c2)s1` [1l], the inhibition at 10 µM amounted to 7.6 ± 8.3%.

Turning to `COc1cccc(OC)c1-c1nnc(N)s1` [1g], the inhibition at 10 µM is -3.9 ± 2%.

With `Nc1nnc(-c2ccc(O)c(O)c2)s1` [1d, 3′,4′-dihydroxy-phenyl-1,3,4-thiadiazole], the inhibition at 10 µM was -0.1 ± 6.2%.

In a further data set the target is T3, hERG (Homo sapiens, UniProt Q12809).
T3 construct: gene KCNH2
T3 sequence (Q12809 whole entry): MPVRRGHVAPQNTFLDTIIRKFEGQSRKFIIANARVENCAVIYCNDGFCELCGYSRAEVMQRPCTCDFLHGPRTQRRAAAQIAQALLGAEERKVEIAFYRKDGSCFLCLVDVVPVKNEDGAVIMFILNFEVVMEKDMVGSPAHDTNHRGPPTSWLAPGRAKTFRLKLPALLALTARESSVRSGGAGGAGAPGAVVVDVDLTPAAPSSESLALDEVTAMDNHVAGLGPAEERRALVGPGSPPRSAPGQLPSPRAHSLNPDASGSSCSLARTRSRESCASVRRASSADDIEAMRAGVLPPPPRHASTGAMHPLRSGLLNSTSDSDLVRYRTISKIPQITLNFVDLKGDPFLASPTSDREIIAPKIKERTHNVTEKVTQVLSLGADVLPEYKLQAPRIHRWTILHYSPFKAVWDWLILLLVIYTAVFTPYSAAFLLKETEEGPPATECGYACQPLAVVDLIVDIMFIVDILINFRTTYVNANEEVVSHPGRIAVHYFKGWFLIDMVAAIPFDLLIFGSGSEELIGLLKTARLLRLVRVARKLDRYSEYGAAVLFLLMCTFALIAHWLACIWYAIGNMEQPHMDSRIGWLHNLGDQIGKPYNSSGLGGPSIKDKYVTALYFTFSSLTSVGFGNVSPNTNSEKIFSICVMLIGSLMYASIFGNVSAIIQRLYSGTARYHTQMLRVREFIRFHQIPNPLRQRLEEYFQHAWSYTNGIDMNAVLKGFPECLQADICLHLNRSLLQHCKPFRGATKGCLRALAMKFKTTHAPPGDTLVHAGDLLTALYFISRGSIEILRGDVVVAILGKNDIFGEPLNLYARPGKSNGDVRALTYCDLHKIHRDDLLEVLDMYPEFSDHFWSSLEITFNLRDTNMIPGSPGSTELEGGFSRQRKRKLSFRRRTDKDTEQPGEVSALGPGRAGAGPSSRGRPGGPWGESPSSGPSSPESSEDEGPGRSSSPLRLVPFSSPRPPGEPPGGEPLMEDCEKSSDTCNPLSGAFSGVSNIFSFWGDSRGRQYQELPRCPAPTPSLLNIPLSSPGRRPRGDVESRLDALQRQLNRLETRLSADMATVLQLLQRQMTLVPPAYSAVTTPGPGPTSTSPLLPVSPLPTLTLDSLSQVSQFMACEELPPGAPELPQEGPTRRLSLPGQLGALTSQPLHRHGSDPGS
Experiment: not given
Settings: not given
Also noted: hERG inhibition liability assay.
As to `Nc1nnc(-c2cccc(Br)c2)s1` [1i], the inhibition at 10 µM was 14.6 ± 4.2%.

As for `Nc1nnc(-c2ccc(-c3nnc(N)s3)c(N)c2)s1` [1o], the inhibition at 10 µM was -1.9 ± 4.9%.

For the compound `Nc1nnc(-c2ccc(Cl)c(Cl)c2)s1` [1l], the inhibition at 10 µM is 91.7 ± 8.4%.

As to `COc1cccc(OC)c1-c1nnc(N)s1` [1g], the inhibition at 10 µM was 4.3 ± 2%.

In the case of `Nc1nnc(-c2ccc(O)c(O)c2)s1` [1d, 3′,4′-dihydroxy-phenyl-1,3,4-thiadiazole], the inhibition at 10 µM was 19.2 ± 6.4%.

Another data set addresses T4, hDHFR (Homo sapiens, UniProt P00374).
T4 construct: gene DHFR
T4 sequence (P00374 1-187): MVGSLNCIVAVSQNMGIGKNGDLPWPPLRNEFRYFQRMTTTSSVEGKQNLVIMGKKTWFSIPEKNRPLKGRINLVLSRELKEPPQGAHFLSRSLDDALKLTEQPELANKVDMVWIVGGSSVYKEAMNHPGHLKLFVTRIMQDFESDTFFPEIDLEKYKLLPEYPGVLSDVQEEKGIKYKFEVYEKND
Briefly: biochemical.
Settings: not given
Further details: human DHFR enzyme inhibition. The protocol: Figure 10 Summary heat map of the in vitro assays to determine possible liability issues for all synthesized compounds. Assays were performed to assess inhibition of hERG and five CYP isoforms (1A2, 2C9, 2C19, 2D6, and 3A4), growth inhibition of A549 and W1-38 cell lines, and mitochondrial toxicity at 10 μM. The hDHFR inhibition was determined at 100 μM. The data, expressed as percentage values, were organized by adopting a color code for rapid and intuitive visualization. The ideal compound should have all tiles blue, indicating a safe toxicological profile for progressing into the development pipeline. The cells are colored from blue (100% of cell growth at the tested concentration) to red (0% of cell growth at the tested concentration) for A549 and W1-38 and from blue (0% of inhibitory activity at the tested concentration) to red (100% of inhibitory activity at the tested concentration) for CYP isoforms, hERG, hDHFR, and mitochondrial toxicity.
With `Nc1nnc(-c2cccc(Br)c2)s1` [1i], the inhibition at 100 µM came out at 19%.

In the case of `COc1cccc(OC)c1-c1nnc(N)s1` [1g], the inhibition at 100 µM was determined as 12%.

On to `Nc1nnc(-c2ccc(O)c(O)c2)s1` [1d, 3′,4′-dihydroxy-phenyl-1,3,4-thiadiazole], for which the inhibition at 100 µM amounted to 62%.

Still in this data set, the particulars now being: 10 uM.
On to `Nc1nnc(-c2ccc(-c3nnc(N)s3)c(N)c2)s1` [1o], for which the inhibition at 10 µM is 12%.

Consider `Nc1nnc(-c2ccc(Cl)c(Cl)c2)s1` [1l], for which the inhibition at 10 µM was determined as 18%.

System in a further data set: not listed separately
The data set can be described thus: in vitro. The settings on record: human, a549 cells; read-out: % cell growth A549 at 10uM. Further details: cytotoxicity, per cent cell growth of A549 cells.
With `Nc1nnc(-c2cccc(Br)c2)s1` [1i], the viability at 10 µM is 135 ± 4.6%.

With `Nc1nnc(-c2ccc(-c3nnc(N)s3)c(N)c2)s1` [1o], the viability at 10 µM came out at 118 ± 9.4%.

Turning to `Nc1nnc(-c2ccc(Cl)c(Cl)c2)s1` [1l], the viability at 10 µM is 107 ± 1.2%.

For `COc1cccc(OC)c1-c1nnc(N)s1` [1g], the viability at 10 µM worked out at 149.9 ± 0.3%.

As to `Nc1nnc(-c2ccc(O)c(O)c2)s1` [1d, 3′,4′-dihydroxy-phenyl-1,3,4-thiadiazole], the viability at 10 µM is 145.9 ± 0.7%.

Values taken from publication PMC5623949, “Exploiting the 2-Amino-1,3,4-thiadiazole Scaffold To Inhibit Trypanosoma brucei Pteridine Reductase in Support of Early-Stage Drug Discovery” (ACS Omega, 2017).
